From PubChem BioAssay (NCI)
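Growth conditions: 96-well plates. Treatment: test compound, 48 hours, 5 concentrations. Analysis: linear interpolation between bracketing concentrations; unreached endpoints set to highest concentration. TGI is the concentration that stops growth completely.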

Tests used:
Assay in all cases: DTP human tumour cell line panel, 48 h
NCI-H23 lung = tested on: NCI-H23 lung
HCT-15 colon = tested on: HCT-15 colon
OVCAR-5 ovarian = tested on: OVCAR-5 ovarian
IGROV1 ovarian = tested on: IGROV1 ovarian
M14 melanoma = tested on: M14 melanoma
U251 CNS = tested on: U251 CNS
SNB-19 CNS = tested on: SNB-19 CNS
SK-MEL-5 melanoma = tested on: SK-MEL-5 melanoma
UO-31 renal = tested on: UO-31 renal
UACC-62 melanoma = tested on: UACC-62 melanoma
RXF 393 renal = tested on: RXF 393 renal
OVCAR-3 ovarian = tested on: OVCAR-3 ovarian
SW-620 colon = tested on: SW-620 colon
UACC-257 melanoma = tested on: UACC-257 melanoma
SF-539 CNS = tested on: SF-539 CNS
A498 renal = tested on: A498 renal
SF-295 CNS = tested on: SF-295 CNS
OVCAR-8 ovarian = tested on: OVCAR-8 ovarian
HS 578T breast = tested on: HS 578T breast
SR leukemia = tested on: SR leukemia
MDA-MB-231 breast = tested on: MDA-MB-231 breast
HCC-2998 colon = tested on: HCC-2998 colon
KM12 colon = tested on: KM12 colon
SK-MEL-28 melanoma = tested on: SK-MEL-28 melanoma
MALME-3M melanoma = tested on: MALME-3M melanoma
CCRF-CEM leukemia = tested on: CCRF-CEM leukemia
RPMI-8226 leukemia = tested on: RPMI-8226 leukemia
A549 NSCLC = tested on: A549 NSCLC
MDA-MB-435 = tested on: MDA-MB-435
TK-10 renal = tested on: TK-10 renal
COLO 205 colon = tested on: COLO 205 colon
SN12C renal = tested on: SN12C renal
OVCAR-4 ovarian = tested on: OVCAR-4 ovarian
HOP-92 NSCLC = tested on: HOP-92 NSCLC
SK-OV-3 ovarian = tested on: SK-OV-3 ovarian
MOLT-4 leukemia = tested on: MOLT-4 leukemia
NCI/ADR-RES ovarian = tested on: NCI/ADR-RES ovarian
BT-549 breast = tested on: BT-549 breast
K-562 leukemia = tested on: K-562 leukemia
MCF7 breast = tested on: MCF7 breast
SK-MEL-2 melanoma = tested on: SK-MEL-2 melanoma
HL-60(TB) leukemia = tested on: HL-60(TB) leukemia
CAKI-1 renal = tested on: CAKI-1 renal
HT29 colon = tested on: HT29 colon
DU-145 prostate = tested on: DU-145 prostate
SF-268 CNS = tested on: SF-268 CNS
NCI-H522 lung = tested on: NCI-H522 lung
786-0 renal = tested on: 786-0 renal
HOP-62 NSCLC = tested on: HOP-62 NSCLC
NCI-H460 lung = tested on: NCI-H460 lung
HCT-116 colon = tested on: HCT-116 colon
NCI-H226 lung = tested on: NCI-H226 lung
SNB-75 CNS = tested on: SNB-75 CNS
T-47D breast = tested on: T-47D breast
MDA-N = tested on: MDA-N
LOX IMVI melanoma = tested on: LOX IMVI melanoma
EKVX NSCLC = tested on: EKVX NSCLC
PC-3 prostate = tested on: PC-3 prostate
ACHN renal = tested on: ACHN renal
DMS 273 small cell lung = tested on: DMS 273 small cell lung
DLD-1 colon = tested on: DLD-1 colon
KM20L2 colon = tested on: KM20L2 colon
XF 498 CNS = tested on: XF 498 CNS
LXFL 529 NSCLC = tested on: LXFL 529 NSCLC
DMS 114 small cell lung = tested on: DMS 114 small cell lung
M19-MEL melanoma = tested on: M19-MEL melanoma

Measured: TGI

O=C(Nc1ccc(Nc2ccc3c(c2)C(=O)c2ccccc2C3=O)c2c1C(=O)c1ccccc1C2=O)c1ccccc1
> 91.9 µM: HS 578T breast
98.7 µM: U251 CNS
58.1 µM: SNB-75 CNS
> 30.5 µM: SK-MEL-2 melanoma
> 72.8 µM: CCRF-CEM leukemia
17.1 µM: SR leukemia
> 96.6 µM: RXF 393 renal
> 69.3 µM: MOLT-4 leukemia
> 42.1 µM: NCI-H522 lung
35.4 µM: NCI-H460 lung
86.9 µM: HCC-2998 colon
not listed: DMS 273 small cell lung | DLD-1 colon | KM20L2 colon | XF 498 CNS | LXFL 529 NSCLC | DMS 114 small cell lung | M19-MEL melanoma
> 100 µM: all other assays above

O=C1c2ccccc2C(=O)N1C/C=N/NS(=O)(=O)c1cccc([N+](=O)[O-])c1
not listed: OVCAR-5 ovarian | OVCAR-3 ovarian | HS 578T breast | MDA-MB-231 breast | SK-MEL-28 melanoma | MDA-MB-435 | HOP-92 NSCLC | SK-OV-3 ovarian | NCI/ADR-RES ovarian | BT-549 breast | MCF7 breast | DU-145 prostate | NCI-H226 lung | T-47D breast | MDA-N | PC-3 prostate
> 100 µM: all other assays above
